# Source: US10746749B2, “Ellagic acid formulations for use in coagulation assays” (Abbott Point of Care Inc., priority 2014, dated 2020)
# Experiments:
# whole blood = test: PT assay on sensor with SBQ-PVA immobilized substrate, heparin-spiked whole blood
# Protocol: FIGS. 10 and 11 exemplify this concept as follows. A coagulation sensor was directly printed either with a large (FIG. 10) or small (FIG. 11) SBQ-PVA immobilized coagulation substrate. Subsequently, a PT coagulation activator was printed on top of the immobilized substrate matrix. These sensors were then tested with appropriate fluids to assess coagulation time. As with the results from FIGS. 5 and 6, one benefit of printing more of the immobilized substrate matrix is that the increased amount of immobilized substrate matrix led to an increase in pA. Also, when heparin is spiked into the whole blood sample, the clotting times are not as extended as they are expected to be (FIGS. 10 and 11 (response curves 181) (heparin spike) should be more similar to response curves 182 (abnormally long control fluid) clotting times, but are actually behaving more like whole blood without heparin, (response curves 183)). […] Further, applying a larger amount of the immobilizing matrix results in a greater neutralizing effect (e.g., compare the bias between whole blood and whole blood with heparin in FIGS. 10 and 11). […] In both FIGS. 10 and 11, the heparin spiked blood behaves more like unaltered whole blood than it does like an abnormally long control fluid, reflecting that there is an interferent/heparin neutralizing effect.
# [1] = cited from earlier work
Compound,"extension of PT clotting time versus whole blood (whole blood; heparin 1 IU/mL, smaller print amount of SBQ-PVA neutralizing matrix (FIG. 11)) [%]","extension of PT clotting time versus whole blood (whole blood; heparin added to 1 IU/mL, large SBQ-PVA matrix print (FIG. 10)) [%]",solubility in methanol [1]
heparin,55,14,–
O=c1oc2c(O)c(O)cc3c(=O)oc4c(O)c(O)cc1c4c23 [ellagic acid],–,–,slightly soluble
